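Briefly, cells in 96-well plates were exposed to five compound concentrations for 48 h, and endpoints were estimated by linear interpolation. Abbreviation: GI50, concentration required for 50% inhibition of growth.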 Calls of active or inactive are those of the source. Rule as the data show it: active = GI50 up to about 1.1 µM and inactive = higher.
Experiments:
Assay in all cases: inhibition of tumour cell growth, NCI panel, 48 h
[1] = system: OVCAR-4
[2] = system: UACC-62
[3] = system: HCC 2998
[4] = system: MOLT-4
[5] = system: SNB-75
[6] = system: NCI-H23
[7] = system: MDA-MB-231
[8] = system: SF-539
[9] = system: OVCAR-3
[10] = system: MDA-MB-435
[11] = system: HCT-116
[12] = system: EKVX
[13] = system: ACHN
[14] = system: CCRF-CEM
[15] = system: Hs-578T
[16] = system: HT-29
[17] = system: TK-10
[18] = system: SN12C
[19] = system: UO-31
[20] = system: A498

SMILES | GI50 [1] | GI50 [2] | GI50 [3] | GI50 [4] | GI50 [5] | GI50 [6] | GI50 [7] | GI50 [8] | GI50 [9] | GI50 [10] | GI50 [11] | GI50 [12] | GI50 [13] | GI50 [14] | GI50 [15] | GI50 [16] | GI50 [17] | GI50 [18] | GI50 [19] | GI50 [20]
Cc1ccc2c(c1)C(=O)C(Cc1ccccc1C(=O)O)C2 (stereo not drawn) | > 100 µM (inactive) | > 100 µM (inactive) | > 100 µM (inactive) | > 100 µM (inactive) | > 100 µM (inactive) | > 100 µM (inactive) | > 100 µM (inactive) | > 100 µM (inactive) | > 100 µM (inactive) | > 100 µM (inactive) | > 100 µM (inactive) | > 100 µM (inactive) | > 100 µM (inactive) | > 100 µM (inactive) | > 100 µM (inactive) | > 100 µM (inactive) | > 100 µM (inactive) | > 100 µM (inactive) | > 100 µM (inactive) | > 100 µM (inactive)
COc1ccc(/C=C2\CN(C)C/C(=C\c3ccc(OC)c(OC)c3OC)C2=O)c(OC)c1OC | 0.253 µM (active) | 0.2 µM (active) | 0.171 µM (active) | 0.0685 µM (active) | 0.973 µM (active) | 0.0579 µM (active) | 0.282 µM (active) | 0.102 µM (active) | 0.11 µM (active) | 0.0199 µM (active) | 0.111 µM (active) | 1.67 µM (inactive) | 0.218 µM (active) | 0.019 µM (active) | 0.303 µM (active) | 0.171 µM (active) | 1.01 µM (active) | 0.101 µM (active) |  | 0.146 µM (active)
COC12CCCN1c1ccn(Cc3ccccc3)c(=O)c1C2=O (stereo not drawn) | > 100 µM (inactive) | > 100 µM (inactive) | > 100 µM (inactive) | 28.7 µM (inactive) | > 100 µM (inactive) | > 100 µM (inactive) | > 100 µM (inactive) | > 100 µM (inactive) | > 100 µM (inactive) | > 100 µM (inactive) | > 100 µM (inactive) | > 100 µM (inactive) | > 100 µM (inactive) | 82 µM (inactive) | > 100 µM (inactive) | > 100 µM (inactive) | > 100 µM (inactive) | > 100 µM (inactive) | > 100 µM (inactive) | > 100 µM (inactive)
CC(=O)CCNc1ccc(-c2cc(-c3ccc(N(C)C)cc3)nc3ccc4ccccc4c23)cc1 | 6.52 µM (inactive) | > 60.8 µM (inactive) | > 100 µM (inactive) | 6.76 µM (inactive) | 9.84 µM (inactive) | > 100 µM (inactive) | > 75 µM (inactive) | > 53.7 µM (inactive) | 44.8 µM (inactive) | > 60.7 µM (inactive) | 18.5 µM (inactive) | > 51.5 µM (inactive) | 17.8 µM (inactive) | 8.07 µM (inactive) | 39.2 µM (inactive) | 66.2 µM (inactive) | > 100 µM (inactive) | 33.5 µM (inactive) | 23.5 µM (inactive) | 43.8 µM (inactive)
C=C1C(=O)O[C@@H]2/C=C(/C)[C@@H](OC(C)=O)C/C=C(\C)C(O)[C@@H](OC(=O)/C(C)=C\C)C12 (stereo partly drawn) | 41.6 µM (inactive) | 26.4 µM (inactive) | 24.6 µM (inactive) | 21.1 µM (inactive) | 79.8 µM (inactive) | 41.9 µM (inactive) | 19.1 µM (inactive) | 34.4 µM (inactive) | 35.7 µM (inactive) | 20.4 µM (inactive) | 16.3 µM (inactive) | 32.1 µM (inactive) | 18.7 µM (inactive) | 9.53 µM (inactive) | 56.2 µM (inactive) | 20.6 µM (inactive) | 68.7 µM (inactive) | 21 µM (inactive) |  | 51.3 µM (inactive)
Cc1oc2nc1C(=O)NCc1nc(cs1)C(=O)N[C@H](C(C)C)c1nc(cs1)C(=O)N[C@H]2C | > 100 µM (inactive) | 81.5 µM (inactive) | 43.7 µM (inactive) | 81.7 µM (inactive) | 95.7 µM (inactive) | > 100 µM (inactive) | 9.57 µM (inactive) | 42.3 µM (inactive) | > 100 µM (inactive) | > 100 µM (inactive) | 45.8 µM (inactive) | > 100 µM (inactive) | > 100 µM (inactive) | > 100 µM (inactive) | 75.3 µM (inactive) | 65 µM (inactive) |  | 58.5 µM (inactive) | 37.2 µM (inactive) | > 100 µM (inactive)
CN1C[C@@H]2CCCN2P1Oc1cccc2cccnc12 (stereo partly drawn) | 32.8 µM (inactive) | 39.3 µM (inactive) | 47.3 µM (inactive) | 6.76 µM (inactive) | > 100 µM (inactive) | 17.9 µM (inactive) | 42.6 µM (inactive) | 44.9 µM (inactive) | 23.4 µM (inactive) | 45.6 µM (inactive) | 8.69 µM (inactive) | 29 µM (inactive) | 49 µM (inactive) | 2.41 µM (inactive) | 17.5 µM (inactive) | 33 µM (inactive) | 75.7 µM (inactive) | 22.9 µM (inactive) | 34.9 µM (inactive) | > 100 µM (inactive)
NS(=O)(=O)c1nn2c(Br)c(-c3ccccc3)nc2s1 | 10.6 µM (inactive) | 4.23 µM (inactive) | 4.92 µM (inactive) | 1.61 µM (inactive) | 5.18 µM (inactive) | 3.48 µM (inactive) | 4.47 µM (inactive) | 1.96 µM (inactive) | 4.49 µM (inactive) | 4.45 µM (inactive) | 2.04 µM (inactive) | 15.8 µM (inactive) | 4.45 µM (inactive) | 2.65 µM (inactive) | 9.48 µM (inactive) | 2.49 µM (inactive) | 6.37 µM (inactive) | 2.92 µM (inactive) | 4.02 µM (inactive) | 17 µM (inactive)
Cc1ccc2c(c1)CN(C(=O)CCC(=O)OCc1ccccc1)c1ccc(C)cc1CN2C(=O)CCC(=O)OCc1ccccc1 | > 100 µM (inactive) | > 100 µM (inactive) | > 100 µM (inactive) | > 100 µM (inactive) | 26.6 µM (inactive) | > 100 µM (inactive) | > 100 µM (inactive) | 88.3 µM (inactive) | > 100 µM (inactive) | > 100 µM (inactive) | > 100 µM (inactive) | > 100 µM (inactive) | > 100 µM (inactive) | > 100 µM (inactive) | 40 µM (inactive) | > 100 µM (inactive) | > 100 µM (inactive) | > 100 µM (inactive) |  | > 100 µM (inactive)
Clc1ccccc1C(Nc1cnccn1)Nc1cnccn1 | > 100 µM (inactive) | > 100 µM (inactive) | > 100 µM (inactive) | 23.6 µM (inactive) | 96.6 µM (inactive) | > 100 µM (inactive) | > 100 µM (inactive) | > 100 µM (inactive) | > 100 µM (inactive) | 8.59 µM (inactive) | 98.2 µM (inactive) | > 100 µM (inactive) | > 100 µM (inactive) | 0.675 µM (active) | > 100 µM (inactive) | > 100 µM (inactive) | > 100 µM (inactive) | > 100 µM (inactive) | > 100 µM (inactive) | > 100 µM (inactive)
CN(C)CCc1c2c(nc3ccccc13)C(=O)c1cccnc1C2=O | 0.31 µM (active) | 0.175 µM (active) | 1.35 µM (inactive) | 2.57 µM (inactive) | 0.42 µM (active) | 0.322 µM (active) | 0.385 µM (active) | 0.168 µM (active) | 0.0513 µM (active) | 0.331 µM (active) | 0.0838 µM (active) | 1.55 µM (inactive) | 0.084 µM (active) | 0.682 µM (active) | 1.15 µM (inactive) | 1.55 µM (inactive) | 1.3 µM (inactive) | 0.277 µM (active) | 0.197 µM (active) | 0.597 µM (active)
CC(C)[C@@H]1CC[C@@H](C)C[C@H]1OC(=O)/C=C1\C(C(=O)O[C@@H]2C[C@H](C)CC[C@H]2C(C)C)[C@H]2C=C[C@@H]1O2 (stereo partly drawn) | > 100 µM (inactive) | 92.5 µM (inactive) | 29.1 µM (inactive) | 35.8 µM (inactive) | > 100 µM (inactive) | 36.7 µM (inactive) | 87.5 µM (inactive) | > 100 µM (inactive) | 38.3 µM (inactive) | 59 µM (inactive) | 49.9 µM (inactive) | 63.4 µM (inactive) | 27.1 µM (inactive) | 23.4 µM (inactive) | 72.3 µM (inactive) | 33.4 µM (inactive) | > 100 µM (inactive) | 57.8 µM (inactive) | > 100 µM (inactive) | > 100 µM (inactive)
O=C(Cc1cc(=O)oc2cc(O)ccc12)N/N=C/c1ccc(N(CCCl)CCCl)cc1 | 23.8 µM (inactive) | 6.19 µM (inactive) | > 100 µM (inactive) | 15.3 µM (inactive) | 21.7 µM (inactive) | 22.3 µM (inactive) | 18.5 µM (inactive) | 18 µM (inactive) | 18.2 µM (inactive) | 19.8 µM (inactive) | 16.6 µM (inactive) | 17.5 µM (inactive) | 15.8 µM (inactive) | 15 µM (inactive) | 26.1 µM (inactive) | 22.2 µM (inactive) |  | 17.7 µM (inactive) | 22.2 µM (inactive) | 22.3 µM (inactive)
COC(O)C(=O)c1c2c(cc3c1CC1(Cc4cc5c(cc4C1)CCC5)C3)CCC2 (stereo not drawn) | 18.5 µM (inactive) |  | 23.6 µM (inactive) | 15.8 µM (inactive) | 17.1 µM (inactive) | 16.4 µM (inactive) | 14.1 µM (inactive) | 17.3 µM (inactive) | 15.6 µM (inactive) | 2.7 µM (inactive) | 8.73 µM (inactive) | 22.2 µM (inactive) | 15.7 µM (inactive) | 4.33 µM (inactive) | 20.4 µM (inactive) | 9.33 µM (inactive) | 17.7 µM (inactive) |  | 18.7 µM (inactive) | 17.9 µM (inactive)
